Like-named read-outs stand apart in the source and are kept apart here.
What was measured:
[1] = test system: GTN-induced migraine; details: cited from earlier work
[2] = intranasal, formulations containing cyclodextrins, rabbits; cited from earlier work
[3] = in vivo; cited from earlier work
[4] = test system: allergic rhinitis; details: intranasal, humans; cited from earlier work
[5] = cited from earlier work
[6] = human, in vivo, inhaled or intranasal
Description: In this study, the fraction absorbed nasally was calculated by preventing absorption via the GI tract through the use of charcoal.

[7] = nasal spray, cited from earlier work
[8] = rat, in vivo; cited from earlier work

O=[N+]([O-])OCC(CO[N+](=O)[O-])O[N+](=O)[O-] [GTN, glyceryltrinitrate]
subjects with a history of migraine in whom migraine is expected to be induced ([1]; GTN challenge): 75%

CN1C[C@H](C(=O)N[C@]2(C)O[C@@]3(O)[C@@H]4CCCN4C(=O)[C@H](Cc4ccccc4)N3C2=O)C[C@@H]2c3cccc4[nH]cc(c34)C[C@H]21 [dihydroergotamine]
Tmax, powder versus liquid formulations [2]: broadly comparable

calcitonin
absorption, liquid versus powder formulations [3]: comparable

O=C(O)c1cc(=O)c2c(OCC(O)COc3cccc4oc(C(=O)O)cc(=O)c34)cccc2o1 [sodium cromoglycate]
effectiveness, powder versus solution formulation [4]: somewhat more effective

CNS(=O)(=O)Cc1ccc2[nH]cc(CCN(C)C)c2c1 [sumatriptan]
time to reversal of GTN-induced excess of theta (more than 15%) after treatment ([1]; studies by others): ≤ 30 min

elcatonin
bio-availability in vivo, powder formulation versus liquid [5]: greater bio-availability

CN(C)CCc1c[nH]c2ccc(C[C@H]3COC(=O)N3)cc12 [zolmitriptan]
ratio of nasal absorption fraction to total bioavailability (BA) [6]: about 0.75
fraction of nasal absorption ([7]; GI absorption prevented with charcoal): about 30%
total BA [7]: about 40%

salmon calcitonin
Tmax, powder versus liquid formulations [8]: no apparent difference
